Source: patent publication US20180200257A1, “METHODS FOR THE TREATMENT OF INFLAMMATORY DISORDERS” (Galapagos NV, priority 2015, published 2018)

Test system: subjects with moderately to severely active RA who have an inadequate response to methotrexate (MTX)
Assay: Study 1 (add-on to MTX) - ACR responses (ACR20/50/70)
Format: in vivo, human
Text: The terms “ACR20”, “ACR50” and “ACR70” as used herein are scores which indicate how much a patient's rheumatoid arthritis has improved according to criteria set out by the American College of Rheumatology (ACR). The ACR score represents a percentage. An ACR20 score means that a person's RA has improved by 20%, an ACR50 score means it has improved by 50%, and an ACR70 score means it has improved by 70%. Specifically, to qualify for an ACR20 score, a person with RA must have at least 20% fewer tender joints and at least 20% fewer swollen joints. In addition the patient must show a 20% improvement in at least three of the following five areas: the person's overall (global) assessment of his or her own RA, the physician's global assessment of the person's RA, the person's assessment of his or her own pain, the person's assessment of his or her own physical functioning, and the results of an erythrocyte sedimentation rate or C-reactive protein (CRP) blood test (both of which test for inflammation). ACR50 and ACR70 scores use the same criteria but require 50% and 70% improvement, respectively, (Felson et al., 1993). In the data presented herein the CRP blood test is used.
Double-blind, placebo-controlled add on study in subjects with moderately to severely active RA who have an inadequate response to methotrexate (MTX) (oral or parenteral).
595 subjects randomized to one of 6 dose regimens of Compound 1 (dosed as [Compound 1:HCl:3H2O]) (3 dose levels administered either once or twice daily) or placebo on top of each subject's stable dose of MTX.
Compound 1 (dosed as [Compound 1:HCl:3H2O]) is dosed for twelve weeks once daily (q.d.) (50 mg, 100 mg or 200 mg) or twice daily (b.i.d.) (25 mg, 50 mg or 100 mg); or placebo.
At Week 12, the subjects on placebo who have not achieved 20% improvement in swollen joint count (SJC66) and tender joint count (TJC68) are re-randomized automatically to receive Compound 1 (dosed as a [Compound 1:HCl:3H2O]) either at 100 mg q.d. or 50 mg b.i.d. doses in a blinded fashion; subjects on 50 mg q.d. who have not achieved 20% improvement in SJC66 and TJC68 will be assigned to 100 mg q.d. and subjects on 25 mg b.i.d. that have not achieved a 20% improvement in SJC66 and TJC68 will be assigned to 50 mg b.i.d. Subjects who switch treatment at week 12 are handled as if they discontinued at week 12 for the purpose of statistical analysis, whereas subjects in the other groups will maintain their randomized treatment until Week 24.
The American College of Rheumatology (ACR) composite score, which evaluates clinical improvement relative to an initial assessment, is a commonly accepted efficacy end point for clinical trials in patients with rheumatoid arthritis. The ACR score correspond to a percentage improvement in pre-set parameters, and therefore measures the evolution of the disease in a patient. For example, ACR20 denotes at least 20% improvement in tender and swollen joint counts and in three of the following end points: global assessment by the patient, global assessment by the doctor, C reactive protein (CRP), patient's pain Visual Analogue Scale and Health Assessment Questionnaire Score. The number of swollen joints, ESR and CRP correlate with radiographic progression of joint damage, whereas tender joint counts, as well as global assessments by doctors and patients, and patients' reports of pain, are sensitive to change in clinical outcomes. Physical function, as assessed by the Health Assessment Questionnaire Score, is a potent predictor of the risk of disability in rheumatoid arthritis (Felson and American College of Rheumatology Committee to Reevaluate Improvement Criteria, 2007; Felson et al., 1993).
In particular, the list of parameters used to assess ACR score can be found in the Table XCVI below and the results of the ACR responses at week 12 via either NRI or LOCF are shown in the tables below. The Hommel-corrected p-value for the pairwise comparisons of each group with placebo is shown. […]

[1] = 50 mg q.d., week 2, 12 weeks results
[2] = 50 mg q.d., week 2, 24 weeks results
[3] = 50 mg q.d., week 4, 12 weeks results
[4] = 50 mg q.d., week 4, 24 weeks results
[5] = 50 mg q.d., week 12, 12 weeks results
[6] = 50 mg q.d., week 12, 24 weeks results
[7] = 50 mg q.d., week 16, 24 weeks results
[8] = 50 mg q.d., week 20, 24 weeks results
[9] = 50 mg q.d., week 24, 24 weeks results
[10] = 50 mg q.d., at week 1, 12 weeks results
[11] = 50 mg q.d., at week 1, 24 weeks results
[12] = 50 mg q.d., week 8, 12 weeks results
[13] = 50 mg q.d., week 8, 24 weeks results
[14] = 100 mg q.d., week 2, 12 weeks results
[15] = 100 mg q.d., week 2, 24 weeks results
[16] = 100 mg q.d., week 4, 12 weeks results
[17] = 100 mg q.d., week 4, 24 weeks results
[18] = 100 mg q.d., week 8, 24 weeks results
[19] = 100 mg q.d., week 12, 12 weeks results

O=C(Nc1nc2cccc(-c3ccc(CN4CCS(=O)(=O)CC4)cc3)n2n1)C1CC1 [Compound 1, cyclopropanecarboxylic acid {5-[4-(1,1-dioxo-thiomorpholin-4-ylmethyl)-phenyl]-[1,2,4]triazolo[1,5-a]pyridin-2-yl}-amide]
ACR20 (LOCF) [1]: 39.0% | ACR20 (NRI) [1]: 37.8% | ACR50 (LOCF) [1]: 7.3% | ACR50 (NRI) [1]: 7.3% | ACR70 (LOCF) [1]: 2.4% | ACR70 (NRI) [1]: 2.4% | ACR20 (LOCF) [2]: 39.0% | ACR20 (NRI) [2]: 37.8% | ACR50 (LOCF) [2]: 7.3% | ACR50 (NRI) [2]: 7.3% | ACR70 (LOCF) [2]: 2.4% | ACR70 (NRI) [2]: 2.4% | ACR20 (LOCF) [3]: 45.1% | ACR20 (NRI) [3]: 42.7% | ACR50 (LOCF) [3]: 12.2% | ACR50 (NRI) [3]: 12.2% | ACR70 (LOCF) [3]: 7.3% | ACR70 (NRI) [3]: 7.3% | ACR20 (LOCF) [4]: 45.1% | ACR20 (NRI) [4]: 42.7% | ACR50 (LOCF) [4]: 12.2% | ACR50 (NRI) [4]: 12.2% | ACR70 (LOCF) [4]: 7.3% | ACR70 (NRI) [4]: 7.3% | ACR20 (LOCF) [5]: 59.8% | ACR20 (NRI) [5]: 56.1% | ACR50 (LOCF) [5]: 31.7% | ACR50 (NRI) [5]: 31.7% | ACR70 (LOCF) [5]: 15.9% | ACR70 (NRI) [5]: 15.9% | ACR20 (LOCF) [6]: 59.8% | ACR20 (NRI) [6]: 56.1% | ACR50 (LOCF) [6]: 31.7% | ACR50 (NRI) [6]: 31.7% | ACR70 (LOCF) [6]: 15.9% | ACR70 (NRI) [6]: 15.9% | ACR20 (LOCF) [7]: 59.8% | ACR20 (NRI) [7]: 56.1% | ACR50 (LOCF) [7]: 37.8% | ACR50 (NRI) [7]: 37.8% | ACR70 (LOCF) [7]: 18.3% | ACR70 (NRI) [7]: 18.3% | ACR20 (LOCF) [8]: 61.0% | ACR20 (NRI) [8]: 57.3% | ACR50 (LOCF) [8]: 39.0% | ACR70 (LOCF) [8]: 23.2% | ACR20 (LOCF) [9]: 61.0% | ACR20 (NRI) [9]: 54.9% | ACR50 (LOCF) [9]: 36.6% | ACR70 (LOCF) [9]: 22.0% | ACR20 (LOCF) [10]: 22.0% | ACR20 (NRI) [10]: 22.0% | ACR50 (LOCF) [10]: 2.4% | ACR50 (NRI) [10]: 2.4% | ACR70 (LOCF) [10]: 0.0% | ACR70 (NRI) [10]: 0.0% | ACR20 (LOCF) [11]: 22.0% | ACR20 (NRI) [11]: 22.0% | ACR50 (LOCF) [11]: 2.4% | ACR50 (NRI) [11]: 2.4% | ACR70 (LOCF) [11]: 0.0% | ACR70 (NRI) [11]: 0.0% | ACR20 (LOCF) [12]: 57.3% | ACR20 (NRI) [12]: 54.9% | ACR50 (LOCF) [12]: 25.6% | ACR50 (NRI) [12]: 26.8% | ACR70 (LOCF) [12]: 11.0% | ACR70 (NRI) [12]: 11.0% | ACR20 (LOCF) [13]: 57.3% | ACR20 (NRI) [13]: 54.9% | ACR50 (LOCF) [13]: 26.8% | ACR50 (NRI) [13]: 26.8% | ACR70 (LOCF) [13]: 11.0% | ACR70 (NRI) [13]: 11.0% | ACR20 (LOCF) [14]: 45.9% | ACR20 (NRI) [14]: 47.1% | ACR50 (LOCF) [14]: 20.0% | ACR50 (NRI) [14]: 20.0% | ACR70 (LOCF) [14]: 7.1% | ACR70 (NRI) [14]: 7.1% | ACR20 (LOCF) [15]: 48.2% | ACR20 (NRI) [15]: 47.1% | ACR50 (LOCF) [15]: 20.0% | ACR50 (NRI) [15]: 20.0% | ACR70 (LOCF) [15]: 7.1% | ACR70 (NRI) [15]: 7.1% | ACR20 (LOCF) [16]: 48.2% | ACR20 (NRI) [16]: 50.6% | ACR50 (LOCF) [16]: 32.9% | ACR50 (NRI) [16]: 32.9% | ACR70 (LOCF) [16]: 15.3% | ACR70 (NRI) [16]: 15.3% | ACR20 (LOCF) [17]: 51.8% | ACR20 (NRI) [17]: 51.8% | ACR50 (LOCF) [17]: 32.9% | ACR50 (NRI) [17]: 32.9% | ACR70 (LOCF) [17]: 15.3% | ACR70 (NRI) [17]: 15.3% | ACR20 (LOCF) [18]: 64.7% | ACR20 (NRI) [18]: 64.7% | ACR50 (LOCF) [18]: 35.3% | ACR50 (NRI) [18]: 35.3% | ACR70 (LOCF) [18]: 23.5% | ACR70 (NRI) [18]: 23.5% | ACR20 (LOCF) [19]: 63.5% | ACR20 (NRI) [19]: 62.4% | ACR50 (LOCF) [19]: 38.8% | ACR50 (NRI) [19]: 38.8%
